In experiment [1] the test system is LPS-IFN—induced nitrite production. Kind of experiment: MIF-dependent nitrite production in peritoneal macrophages (Greiss assay). The experiment is classed as cell-based, mouse. The conditions noted are these: Mus musculus, Peritoneal macrophage, LPS 10 ng/ml + interferon-γ 10 units/ml, 24 h, read-out: % Inhibition of nitrite (± SD); for inhibition at 33 µM: compound 33 μM; for inhibition at 100 µM: compound 100 μM. As to the method: MIF is able to induce or facilitate the expression and release of a wide variety of pro-inflammatory and/or destructive molecules, including the release of macrophage nitric oxide (NO) ^(20). A compound with the ability to inhibit the cytokine or biological function of MIF might be expected to inhibit the activation of NO production by macrophages.
C57BL6/J male mice were injected intraperitoneally with 2 ml of thioglycolate. Three days later peritoneal macrophages were collected by lavaging the peritoneum with 3 ml of cold Hank's buffered saline solution. Cells from several mice were pooled, washed and re-suspended in DMEM supplemented with 5% FCS. Cells were plated in 96 well plastic tissue culture plates at 1×10^5 cells/well. Cells were treated in triplicate wells with compound or vehicle for 1 hour in a 5% CO2 incubator at 37° C. Cells were then treated with LPS (10 ng/ml) and recombinant human interferon-γ (10 units/ml) and incubated for 24 hours. After 24 hours, 50 μl of supernatant from each well was carefully removed and transferred to ELISA plates. The production of NO was measured by analysing the concentration of nitrite in culture supernatants, as measured by the Greiss assay ^(21). The results were calculated as the percentage inhibition of nitrite concentration in compound-treated cell culture supernatants, compared to that of vehicle-treated cells.

For experiment [2], the system named is MIF-induced proliferation of mouse NIH 3T3 fibroblasts. Kind of experiment: MIF-induced proliferation in mouse fibroblasts (3H-thymidine incorporation). The experiment is classed as cell-based. Conditions: for Mean cpm (3H-thymidine incorporation): Compound (10×^10−6M) + MIF 50 ng/ml, nil 1087, MIF + vehicle 1452. The protocol: The activity of compounds was studied in a bioassay utilising MIF-induced proliferation of mouse NIH 3T3 fibroblasts. […] NIH 3T3 cells were propagated in DMEM/10% foetal calf serum (FCS). Prior to experimentation, cells were seeded at 10^4 cells/well in 96-well plates in DMEM/10% FCS for 18 hours. The media was then replaced with DMEM/0.1% FCS and the cells incubated for a further 18 hr. At time point −1 hr, culture medium was replaced with DMEM/0.1% FCS and cells were treated with a compound of the invention at a final concentration of 10 μM or vehicle. At time point zero, cells were treated with MIF at a final concentration of 50 ng/ml. At time point 6 hr the cells were pulsed with 1 µCi/well of ^3H-thymidine. At time point 24 hours, cells were harvested using a semi-automated cell harvester. The radioactivity incorporated into DNA was determined by liquid scintillation counting, with results expressed as ^3H-thymidine incorporation (cpm). Statistical significance was analysed using the Mann-Whitney test.
In general terms: Uptake of a labelled nucleoside into DNA is a usual measure of proliferation.

By inhibition is commonly meant the percentage by which the read-out fell short of the control. With `COC(=O)CCCC1(c2ccc(F)cc2)OCCO1` [Compound 9, Methyl 4-[2-(4-fluorophenyl)-1,3-dioxolan-2-yl]butanoate], in experiment [1] (compound 1 μM), the inhibition at 1 µM was 16 ± 1%. Moreover, the “Mean cpm (3H-thymidine incorporation)” value in experiment [2] was 1071 cpm.

For `OCCCCC1(c2ccc(F)cc2)OCCO1` [Compound 10, 4-[2-(4-Fluorophenyl)-1,3-dioxolan-2-yl]butan-1-ol], the “Mean cpm (3H-thymidine incorporation)” value in experiment [2] is 1187 cpm.

Turning to `CCCCC1(c2ccc(Br)cc2)OCCO1` [Compound 11, 2-(4′-Bromophenyl)-2-butyl-1,3-dioxolane], the inhibition at 33 µM in experiment [1] turned out to be 19 ± 1%. The “Mean cpm (3H-thymidine incorporation)” value in experiment [2] is on record as 1245 cpm.

As for `COc1ccc(-c2ccc(OC(F)(F)F)cc2)c(OC)n1` [Compound 14, 2,6-Dimethoxy-3-[4-(trifluoromethoxy)phenyl]pyridine], in experiment [1], the inhibition at 100 µM came out at 27 ± 3%. In addition, the “Mean cpm (3H-thymidine incorporation)” value in experiment [2] is 1420 cpm.

`c1csc(-c2ccc(C3NCCS3)cc2)c1` (stereo not shown) [Compound 15, 2-[4-(2-Thienyl)phenyl]-1,3-thiazolane]: in experiment [1], the inhibition at 100 µM came out at 12 ± 1%. For the same molecule, the “Mean cpm (3H-thymidine incorporation)” value in experiment [2] was found to be 955.6 cpm.

In the case of `CCC1(c2ccc(OC)cc2)OCCO1` [Compound 16, 2-Ethyl-2-(4-methoxyphenyl)-1,3-dioxolane], the “Mean cpm (3H-thymidine incorporation)” value in experiment [2] worked out at 1335 cpm.

Regarding `Cc1ccc(C2(C)SCCS2)cc1` [Compound 18, 2-Methyl-2-(4-methylphenyl)-1,3-dithiolane], the inhibition at 100 µM in experiment [1] is 40 ± 1%. In addition, the “significant inhibition of MIF-induced proliferation” value in experiment [2] (10 μM, P<0.05, FIG. 9) is “significant inhibition”.

Consider `CCCCCCC1(c2ccc(C)cc2)OCCO1` [Compound 19, 2-Hexyl-2-(4-methylphenyl)-1,3-dioxolane], for which the “Mean cpm (3H-thymidine incorporation)” value in experiment [2] was 1209 cpm.

With `CC1(c2ccc(Cl)cc2)OCCCO1` [Compound 20, 2-(4-Chlorophenyl)-2-methyl-1,3-dioxane], the “Mean cpm (3H-thymidine incorporation)” value in experiment [2] came to 1214 cpm.

For the molecule `CC1(c2ccc(Cl)cc2)OCCO1` [Compound 21, 2-(4-Chlorophenyl)-2-methyl-1,3-dioxolane], the “Mean cpm (3H-thymidine incorporation)” value in experiment [2] is 1220 cpm.

With `Cc1ccc(C2(C)OCCCO2)cc1` [Compound 22, 2-Methyl-2-(4-methylphenyl)-1,3-dioxane], the “Mean cpm (3H-thymidine incorporation)” value in experiment [2] worked out at 1310 cpm.

As to `Cc1ccc(C2(C)OCCO2)cc1` [Compound 23, 2-Methyl-2-(4-methylphenyl)-1,3-dioxolane], in experiment [2], the “Mean cpm (3H-thymidine incorporation)” value stood at 1344 cpm.

Take `CC1(c2ccc(Cl)cc2)SCCS1` [Compound 24, 2-(4-Chlorophenyl)-2-methyl-1,3-dithiolane]: the inhibition at 33 µM in experiment [1] stood at 21 ± 2%. In experiment [2], the “Mean cpm (3H-thymidine incorporation)” value worked out at 1318 cpm.

Take `CC1(c2ccc([N+](=O)[O-])cc2)OCCO1` [Compound 25, 2-(4-Nitrophenyl)-2-methyl-1,3-dioxolane]: the inhibition at 33 µM in experiment [1] amounted to 7 ± 1%. In addition, the “Mean cpm (3H-thymidine incorporation)” value in experiment [2] worked out at 1117 cpm.

Regarding `CC1(c2ccc([N+](=O)[O-])cc2)OCCCO1` [Compound 26, 2-(4-Nitrophenyl)-2-methyl-1,3-dioxane], the “Mean cpm (3H-thymidine incorporation)” value in experiment [2] is 1141 cpm.

With `COc1ccc(C2OCCS2)cc1` (stereo not shown) [Compound 27, 2-(4-Methoxyphenyl)-1,3-oxathiolane], the inhibition at 100 µM in experiment [1] was determined as 24 ± 1%.

For `COc1cc(C2OCCS2)cc(OC)c1OC` (stereo not shown) [Compound 28, 2-(3,4,5-Trimethoxyphenyl)-1,3-oxathiolane], the “Mean cpm (3H-thymidine incorporation)” value in experiment [2] stood at 1219 cpm.

For the molecule `COc1cc(C2OCCS2)ccc1O` (stereo not shown) [Compound 29, 2-Methoxy-4-(1,3-oxathiolan-2-yl)phenol], in experiment [1], the inhibition at 100 µM turned out to be 9 ± 1%. Besides, in experiment [2], the “Mean cpm (3H-thymidine incorporation)” value is 1157 cpm.

As for `N#Cc1ccc(C2OCCS2)cc1` (stereo not shown) [Compound 30, 4-(1,3-Oxathiolan-2-yl)benzonitrile], the inhibition at 100 µM in experiment [1] is 31 ± 2%.

As to `CCC1(c2ccc(Br)cc2)OCCS1` (stereo not shown) [Compound 31, 2-(4-Bromophenyl)-2-ethyl-1,3-oxathiolane], in experiment [1], the inhibition at 100 µM worked out at 35 ± 3%.

In the case of `CC1CSC(c2ccc(C#N)cc2)O1` (stereo not shown) [Compound 32, 4-(5-Methyl-1,3-oxathiolan-2-yl)benzonitrile], the inhibition at 100 µM in experiment [1] was 14 ± 4%. In experiment [2], the “Mean cpm (3H-thymidine incorporation)” value is given as 1196 cpm.

In the case of `CCCCCCCCC1(c2ccc(O)cc2)OC(C)CS1` (stereo not shown) [Compound 34, 4-(5-Methyl-2-octyl-1,3-oxathiolan-2-yl)phenol], in experiment [1], the inhibition at 100 µM was found to be 24 ± 1%.

On to `CC1CSC(c2ccc(F)c(C#N)c2)O1` (stereo not shown) [Compound 35, 2-Fluoro-5-(5-methyl-1,3-oxathiolan-2-yl)benzenecarbonitrile], for which the inhibition at 100 µM in experiment [1] was 18 ± 2%.

Consider `COc1ccc(-c2ccc(OC(F)(F)F)cc2)cc1` [Compound 36, 4-Methoxy-4′-(trifluoromethoxy)-1,1′-biphenyl], for which the inhibition at 100 µM in experiment [1] was determined as 57 ± 1%. In addition, the “Mean cpm (3H-thymidine incorporation)” value in experiment [2] amounted to 1033 cpm.

In the case of `COc1ccc(-c2ccc(C(F)(F)F)cc2)c(OC)n1` [Compound 37, 2,6-Dimethoxy-3-[4-(trifluoromethyl)phenyl]pyridine], the inhibition at 100 µM in experiment [1] was determined as 24 ± 1%. Besides, the “Mean cpm (3H-thymidine incorporation)” value in experiment [2] is given as 1045 cpm.

Take `CCCCC1(c2ccc(Br)cc2)OCCC(CCC)S1` (stereo not shown) [Compound 38, 2-(4-bromophenyl)-2-butyl-4-propyl-1,3-oxathiane]: the inhibition at 100 µM in experiment [1] was determined as 35%.

Turning to `CCCCC1(c2ccc(Br)cc2)OCCC(CCC)S1` (stereo not shown) [Compound 39, 2-(4-bromophenyl)-2-butyl-4-propyl-1,3-oxathiane], the “Mean cpm (3H-thymidine incorporation)” value in experiment [2] turned out to be 956.1 cpm.

In the case of `N#Cc1ccc(C2OCCO2)cc1` [Compound 40, 4-(1,3-Dioxolan-2-yl)benzenecarbonitrile], the inhibition at 100 µM in experiment [1] turned out to be 7 ± 2%. In addition, in experiment [2], the “Mean cpm (3H-thymidine incorporation)” value is 1143 cpm.

With `CCCCCCC1(c2cc(OC)cc(OC)c2)OCCO1` [Compound 41, 2-(3,5-Dimethoxyphenyl)-2-hexyl-1,3-dioxolane], the inhibition at 100 µM in experiment [1] was 26 ± 1%.

As to `CCC1(c2ccc(Cl)cc2)OCC(C)O1` (stereo not shown) [Compound 42, 2-(4-Chlorophenyl)-2-ethyl-4-methyl-1,3-dioxolane], the “Mean cpm (3H-thymidine incorporation)” value in experiment [2] came to 1168 cpm.

Turning to `CCC1(CC)COC(c2ccc(F)c(C#N)c2)OC1` [Compound 43, 5-(5,5-Diethyl-1,3-dioxan-2-yl)-2-fluorobenzenecarbonitrile], in experiment [1], the inhibition at 100 µM came to 34 ± 1%. Moreover, in experiment [2], the “Mean cpm (3H-thymidine incorporation)” value stood at 1106 cpm.

Consider `Clc1ccc(C2=NCCO2)cc1` [Compound 44, 2-(4-Chlorophenyl)-4,5-dihydro-1,3-oxazole], for which the “Mean cpm (3H-thymidine incorporation)” value in experiment [2] amounted to 1294 cpm.

As for `Cc1ccc(C2=NCCO2)cc1` [Compound 45, 2-(4-Methylphenyl)-4,5-dihydro-1,3-oxazole], the inhibition at 100 µM in experiment [1] stood at 7 ± 1%.

These data come from patent US7863313B2, “Methods for the treatment of inflammatory diseases” (Cortical PTY LTD, priority 2003, dated 2011).
